Here are results for 22 compounds from patent US11312727B1, “Macrocyclic flu endonuclease inhibitors” (Janssen BioPharma, Inc., priority 2018, dated 2022).

One series in a line: in vitro. As to conditions: human, CC50, uninfected A549 cells, CellTiter-Glo. (In general: In ATP-based viability assays light output follows the ATP content of the culture.)
In series [1] the test system is Influenza strain A549 A/WSN/33 (H1N1). In words: microbe, parasite or virus in culture. The conditions noted are these: A549 cells, influenza A/WSN/33 (H1N1), 20 hours incubation, read-out: A549_A(H1N1) EC50. The format is cell-based.

Like-named read-outs stand apart in the source and are kept apart here. Some results are limits rather than exact numbers.

`O=C1c2c(O)c(=O)ccn2N2CN1C1(/C=C/COc3c(F)cccc3[C@@H]2c2ccccc2)CCC1` (single isomer, unassigned) [Compound 145B, (18′*S,E)-4′-fluoro-12′-hydroxy-18′-phenyl-6′H,18′H-spiro[cyclobutane-1,9′-[10,17]methanobenzo[b]pyrido[1,2-f][1]oxa[5,6,9]triazacyclotridecine]-11′,13′-dionene] gave a CC50 in the series “in vitro” above 10000 nM. For the same compound, the EC50 in series [1] (Influenza A virus, A549, 20 h) was determined as 310 nM.

In the series “in vitro”, `O=C1c2c(O)c(=O)ccn2N2CN1C/C=C\CCCOc1ccccc1C2c1ccccc1` (centres unmarked) [Compound 60, (*Z)-15-hydroxy-2-phenyl-12,13,14,16-tetrahydro-11H-4-oxa-1(1,3)-pyrido[2,1-f][1,2,4]triazina-3(1,2)-benzenacyclodecaphan-8-ene-14,16-dione] yielded a CC50 above 2000 nM. The EC50 in series [1] (Influenza A virus, A549, 20 h) is above 1000 nM.

In turn, `C[C@@H]1/C=C/COc2cccc3c2[C@H](c2ccccc2SC3)N2CN1C(=O)c1c(O)c(=O)ccn12` (single isomer, unassigned) [Compound 138C, (9*R,17a*R,E)-12-hydroxy-9-methyl-2,6,9,17a-tetrahydro-3,4-(epiprop[1]en[1]yl[3]ylidene)-10,17-methanobenzo[6,7]thiepino[4,5-c]pyrido[1,2-f][1]oxa[5,6,9]triazacyclotridecine-11,13-dione] showed a CC50 in the series “in vitro” above 200 nM. The EC50 in series [1] (Influenza A virus, A549, 20 h) was above 100 nM.

In turn, `CC[C@H]1/C=C/COc2c(ccc(F)c2F)[C@H](c2ccccn2)N2CN1C(=O)c1c(O)c(=O)ccn12` (single isomer, unassigned) [Compound 160BA, (9*S,18*R,*E)-9-ethyl-3,4-difluoro-12-hydroxy-18-(pyridin-2-yl)-6,9-dihydro-18H-10,17-methanobenzo[b]pyrido[1,2-f][1]oxa[5,6,9]triazacyclotridecine-11,13-dione] showed a CC50 in “in vitro” above 100 nM. Further, in series [1] (Influenza A virus, A549, 20 h), the EC50 is above 50 nM.

In “in vitro”, `O=C1c2c(O)c(=O)ccn2N2CN1C/C=C\COc1cccc3c1[C@H]2c1ccccc1CC3` (single isomer, unassigned) [Compound 33A, (19b*R,Z)-4-hydroxy-7,10,15,19b-tetrahydro-14H-13,12-(epiprop[1]en[1]yl[3]ylidene)-6,20-methanobenzo[3,4]cyclohepta[1,2-c]pyrido[1,2-f][1]oxa[5,6,9]triazacyclotridecine-3,5-dione] had a CC50 above 2000 nM. For the same compound, the EC50 in series [1] (Influenza A virus, A549, 20 h) is above 1000 nM.

`CC[C@H]1/C=C/COc2c(F)cccc2[C@@H](c2ccccn2)N2CN1C(=O)c1c(O)c(=O)ccn12` (single isomer, unassigned) [Compound 154AB, (9*S,18*S,*E)-9-ethyl-4-fluoro-12-hydroxy-18-(pyridin-2-yl)-6,9-dihydro-18H-10,17-methanobenzo[b]pyrido[1,2-f][1]oxa[5,6,9]triazacyclotridecine-11,13-dione] yielded a CC50 in “in vitro” above 100 nM. Further, the EC50 in series [1] (Influenza A virus, A549, 20 h) is above 50 nM.

Compound `C[C@H]1C/C=C/COc2c(F)cccc2[C@@H](c2ccccc2)N2CN1C(=O)c1c(O)c(=O)ccn12` (single isomer, unassigned) [Compound 100AA, (2*R,9*S,*E)-33-fluoro-15-hydroxy-9-methyl-2-phenyl-12,13,14,16-tetrahydro-11H-4-oxa-1(1,3)-pyrido[2,1-f][1,2,4]triazina-3(1,2)-benzenacyclononaphan-6-ene-14,16-dione] registered a CC50 in the series “in vitro” above 100 nM. In series [1] (Influenza A virus, A549, 20 h), the EC50 was determined as 1.7 nM.

As for `O=C1c2c(O)c(=O)ccn2N2CN1C1(/C=C/COc3ccccc3[C@@H]2c2ccccc2)CCC1` (single isomer, unassigned) [Compound 106B, (18′*S,E)-12′-hydroxy-18′-phenyl-6′H,18′H-spiro[cyclobutane-1,9′-[10,17]methanobenzo[b]pyrido[1,2-f][1]oxa[5,6,9]triazacyclotridecine]-11′,13′-dione], in the series “in vitro”, the CC50 was above 200 nM. Also, in series [1] (Influenza A virus, A549, 20 h), the EC50 is above 100 nM.

In “in vitro”, `O=C1c2c(O)c(=O)ccn2N2CN1CC/C=C\COc1ccc(F)c3c1[C@H]2c1ccccc1SC3` (single isomer, unassigned) [Compound 93B, (1*SR,13Z)-20-fluoro-7-hydroxy-16-oxa-23-thia-2,3,10-triazahexacyclo[15.12.1.12,10.03,8.021,30.024,29]hentriaconta-4,7,13,17,19,21(30),24(29),25,27-nonaene-6] gave a CC50 above 200 nM. The EC50 in series [1] (Influenza A virus, A549, 20 h) came out at 2.2 nM.

`Cc1ccc2c(c1F)OC/C=C\CN1CN([C@H]2c2ccccc2)n2ccc(=O)c(O)c2C1=O` (single isomer, unassigned) [Compound 135B, (18*S,Z)-4-fluoro-12-hydroxy-3-methyl-18-phenyl-6,9-dihydro-18H-10,17-methanobenzo[b]pyrido[1,2-f][1]oxa[5,6,9]triazacyclotridecine-11,13-dione] registered a CC50 in “in vitro” above 200 nM. Also, the EC50 in series [1] (Influenza A virus, A549, 20 h) was above 100 nM.

Regarding `CC[C@H]1C/C=C/COc2c(F)cccc2[C@H](c2ccccc2)N2CN1C(=O)c1c(O)c(=O)ccn12` (single isomer, unassigned) [Compound 105BA, (2*S,9*S,*E)-9-ethyl-33-fluoro-15-hydroxy-2-phenyl-12,13,14,16-tetrahydro-11H-4-oxa-1(1,3)-pyrido[2,1-f][1,2,4]triazina-3(1,2)-benzenacyclononaphan-6-ene-14,16-dione], in “in vitro”, the CC50 was above 200 nM. In addition, the concentration giving a half-maximal response (EC50) in series [1] (Influenza A virus, A549, 20 h) is above 100 nM.

With `C[C@H]1/C=C/COc2c(F)cccc2[C@H](c2ccccc2)N2CN1C(=O)c1c(O)c(=O)ccn12` (single isomer, unassigned) [Compound 141BB, (9*S,18*S,E)-4-fluoro-12-hydroxy-9-methyl-18-phenyl-6,9-dihydro-18H-10,17-methanobenzo[b]pyrido[1,2-f][1]oxa[5,6,9]triazacyclotridecine-11,13-dione], the CC50 in “in vitro” was above 20000 nM. In addition, the EC50 in series [1] (Influenza A virus, A549, 20 h) was determined as 627 nM.

In turn, `O=C1c2c(O)c(=O)ccn2N2CN1C[C@H]1C[C@@H]1COc1ccccc1[C@H]2c1ccccc1` (single isomer, unassigned) [Compound 80BA, (1a*S,8*R,17a*S)-14-hydroxy-8-phenyl-1a,2,17,17a-tetrahydro-1H,8H-9,16-methanobenzo[b]cyclopropa[k]pyrido[1,2-f][1]oxa[5,6,9]triazacyclotridecine-13,15-dione] showed a CC50 in “in vitro” above 1000 nM. In addition, in series [1] (Influenza A virus, A549, 20 h), the EC50 is above 500 nM.

The compound `O=C1c2c(O)c(=O)ccn2N2CN1C/C=C\COc1c(ccc(F)c1F)[C@H]2c1ccccc1C(F)F` (single isomer, unassigned) [Compound 165A, (18*R,Z)-18-(2-(difluoromethyl)phenyl)-3,4-difluoro-12-hydroxy-6,9-dihydro-18H-10,17-methanobenzo[b]pyrido[1,2-f][1]oxa[5,6,9]triazacyclotridecine-11,13-dione] came in with a CC50 in “in vitro” above 100 nM. In addition, the EC50 in series [1] (Influenza A virus, A549, 20 h) came to 7.2 nM.

Compound `O=C1c2c(O)c(=O)ccn2N2CN1CCCCCc1ccncc1[C@@H]2c1ccccc1` (single isomer, unassigned) [Compound 34B, (18*S)-12-hydroxy-18-phenyl-5,6,7,8,9,18-hexahydro-10,17-methanodipyrido[1,2-b:4′,3′-k][1,2,5]triazacyclotridecine-11,13-dione] returned a CC50 in “in vitro” above 2000 nM. Moreover, the EC50 in series [1] (Influenza A virus, A549, 20 h) was above 1000 nM.

As for `O=C1c2c(O)c(=O)ccn2N2CN1CCCCCOc1cccc3c1[C@@H]2c1ccccc1SC3` (single isomer, unassigned) [Compound 48B], the CC50 in the series “in vitro” is above 2000 nM. Besides, the EC50 in series [1] came to 27 nM.

For `O=C1c2c(O)c(=O)ccn2N2CN1C/C=C/CCOc1cccc(c1)C2c1ccccc1` (centres unmarked) [Compound 6, (*E)-15-hydroxy-2-phenyl-12,13,14,16-tetrahydro-11H-4-oxa-1(1,3)-pyrido[2,1-f][1,2,4]triazina-3(1,3)-benzenacyclononaphan-7-ene-14,16-dione], in “in vitro”, the CC50 is above 20000 nM. Besides, the EC50 in series [1] (Influenza A virus, A549, 20 h) stood at 6150 nM.

Compound `O=C1c2c(O)c(=O)ccn2N2CN1CCCCOc1ccccc1[C@@H]2c1ccccc1` [Compound 8B, (18S)-12-hydroxy-18-phenyl-6,7,8,9-tetrahydro-18H-10,17-methanobenzo[b]pyrido[1,2-f][1]oxa[5,6,9]triazacyclotridecine-11,13-dione] returned a CC50 in “in vitro” above 2000 nM. Besides, the EC50 in series [1] (Influenza A virus, A549, 20 h) was determined as 4130 nM.

As to `O=C1c2c(O)c(=O)ccn2N2CN1CCCCOc1ccc(F)cc1[C@H]2c1cccc(F)c1` (single isomer, unassigned) [Compound 32A, (18*R)-2-fluoro-18-(3-fluorophenyl)-12-hydroxy-6,7,8,9-tetrahydro-18H-10,17-methanobenzo[b]pyrido[1,2-f][1]oxa[5,6,9]triazacyclotridecine-11,13-dione], the CC50 in the series “in vitro” was above 2000 nM. In addition, in series [1] (Influenza A virus, A549, 20 h), the EC50 is above 1000 nM.

The compound `O=C1c2c(O)c(=O)ccn2N2CN1C/C=C/CCc1ccccc1[C@@H]2c1ccccn1` [Compound 43B, (17R,E)-4-hydroxy-16-(pyridin-2-yl)-7,10,11,16-tetrahydro-6,17-methanobenzo[k]pyrido[1,2-b][1,2,5]triazacyclotridecine-3,5-dione] gave a CC50 in the series “in vitro” above 2000 nM. Moreover, the EC50 in series [1] (Influenza A virus, A549, 20 h) was above 1000 nM.

Take `CN1Cc2ccccc2C(c2ccccc2)N2CN(CCC1=O)C(=O)c1c(O)c(=O)ccn12` (centres unmarked) [Compound 50, 12-hydroxy-6-methyl-18-phenyl-5,8,9,18-tetrahydro-10,17-methanobenzo[k]pyrido[1,2-b][1,2,5,9]tetraazacyclotridecine-7,11,13(6H)-trione]: the CC50 in the series “in vitro” is above 2000 nM. Moreover, the EC50 in series [1] (Influenza A virus, A549, 20 h) is above 1000 nM.

Compound `O=C1c2c(O)c(=O)ccn2N2CN1C/C=C\COc1c(ccc(F)c1F)[C@H]2c1ccccc1C1CC1` (single isomer, unassigned) [Compound 136A, (18*R,*Z)-18-(2-cyclopropylphenyl)-3,4-difluoro-12-hydroxy-6,9-dihydro-18H-10,17-methanobenzo[b]pyrido[1,2-f][1]oxa[5,6,9]triazacyclotridecine-11,13-dione] displayed a CC50 in “in vitro” above 200 nM. The EC50 in series [1] (Influenza A virus, A549, 20 h) turned out to be 6.3 nM.

Broadly, the CC50 is the concentration at which the toxic effect on the cells reaches its halfway point. A high value points to better tolerance by the cells. A word on the EC50: it is the midpoint of the concentration-response curve.
